In article PMC9629855, “Development of ASIC1a ligand-gated ion channel drug screening assays across multiple automated patch clamp platforms” (Frontiers in Molecular Neuroscience, 2022):
Where “and” joins values, the source holds several entries; their conditions need not be identical. Equal values may be shown once. Read-outs that look alike come from different tables or passages of the source.

Columns and labels:
[1] = test system: endogenous proton-activated currents in HEK cells; test: cells; assay type: cell-based, human; details: for IC50: pH 6.5 activation, QPatch 48, read-out: mean IC50
Method: CHO hASIC1a cells were cultured according to vendor instructions (B-SYS GmbH) and HEK cells using standard in-house methods. Both cell lines were harvested using optimized protocols and re-suspended in serum-free media (Gibco CHO-S-SFM from Thermo Fisher Scientific for CHO cells, and Ex-Cell 302 from Merck Sigma-Aldrich for HEK cells) to obtain a suspension of cells with smooth membranes and little debris, before transfer to the automated cell hotel consisting of a 60 ml plastic container (Sophion SB2050) and a magnetic stir bar to prevent cell clumping. An aliquot of cells is then aspirated into a 1 ml microcentrifuge tube and spun down (typically 150 g for 2.5 min) and the supernatant discarded before a user-defined volume of external solution is added by the robot and the cells re-suspended to achieve the desired final cell suspension density before application to primed QPlates. Cell capture, sealing and whole-cell access was achieved using optimized QPatch protocols before currents were recorded using a holding potential of −60 mV. […] Cells were washed three times with external pH 7.3 solution (5 μl) between applications of activating acidic solution to establish a stable ASIC1a current baseline. […] Each concentration of reference compound was applied to each cell before (i.e., during each pH 7.3 application period) and during each pH stimulus (IC50 mode). Thus, each concentration of test compound was pre-incubated with cells for at least 2 min before, and then during each acidic solution challenge, before wash-off in a neutral pH 7.3 solution that contained the next concentration of the same compound. Cells were allowed at least 2 min between applications of acidic solution to enable ASIC1a receptors to recover from desensitization.
Concentration-response xC50 curves from Patchliner and QPatch 48 experiments were calculated by plotting %inhibition (antagonists) or activation (pH) data against concentration in Prism software (GraphPad), using the variable sigmoidal dose-response function to fit the Hill equation with theoretical minimum block of 0% and maximum block of 100% and a free constant for Hill slope. Inward current amplitudes were compared to the response to a control pH application (typically pH 6.5) prior to antagonist application or excitation by solutions of different pH to enable calculation of %inhibition or %activation for each cell.
To quickly confirm a previous publication that HEK cells express endogenous ASIC1a receptor channels and assess the suitability of this cell system for drug discovery screening on APC platforms, we utilized the medium throughput QPatch 48 device. The QPatch uses 48 well microfluidic planar borosilicate chips and coated titanium pipette tips to make whole-cell recordings and sequentially apply small liquid volumes to enable rapid activation followed by slower deactivation (wash-off) of ligand-gated ionotropic responses. HEK cells were voltage-clamped at −60 mV and maintained in external solution at pH 7.4 to avoid steady-state desensitization of ASIC1 receptor channels. Cells were stimulated by external solutions with pH values ranging between 7.0 and 5.5 that evoked rapidly activating inward currents, followed by wash-off in pH 7.4 solution.

ENaC channels = test system: ENaC channels; set-up: method as in Canessa et al., 1994; details: ref Canessa et al., 1994; cited from earlier work
[2] = test system: endogenous pH-gated responses in HEK cells; set-up: method as in Gunthorpe et al. (2001); details: manual patch clamp, ref Gunthorpe et al. (2001), read-out: affinity for inhibition of endogenous pH-gated responses; cited from earlier work
hASIC1a [3] = target: T1, hASIC1a (Homo sapiens, UniProt P78348); set-up: host or cells: CHO; details: ref Leng et al., 2016; read-out: Literature IC50; cited from earlier work
T1 sequence (P78348 1-528): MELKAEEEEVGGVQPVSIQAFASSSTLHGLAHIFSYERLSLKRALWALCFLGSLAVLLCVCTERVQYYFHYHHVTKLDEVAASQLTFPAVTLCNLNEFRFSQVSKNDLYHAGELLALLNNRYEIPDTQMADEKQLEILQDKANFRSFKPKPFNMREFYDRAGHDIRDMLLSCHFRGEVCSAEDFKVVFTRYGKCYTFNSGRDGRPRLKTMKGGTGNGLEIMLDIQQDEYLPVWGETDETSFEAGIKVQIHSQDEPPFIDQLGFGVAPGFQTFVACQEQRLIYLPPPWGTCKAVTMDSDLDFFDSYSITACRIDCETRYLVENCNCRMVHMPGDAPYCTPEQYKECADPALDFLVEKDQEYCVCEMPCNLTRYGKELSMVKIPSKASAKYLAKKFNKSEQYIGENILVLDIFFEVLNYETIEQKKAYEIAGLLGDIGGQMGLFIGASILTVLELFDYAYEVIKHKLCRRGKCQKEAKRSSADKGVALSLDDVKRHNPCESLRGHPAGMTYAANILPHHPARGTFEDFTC

hASIC1a [4] = target: T1, hASIC1a; test: Patchliner APC, CHO ASIC1a currents, stacked tip application, voltage clamp; assay type: cell-based; set-up: host or cells: CHO; details: cumulative application, pH 6.5, stacked tip, single hole
Method: CHO cells were cultured according to vendor instructions (B-SYS GmbH) and harvested using optimized protocols before transfer of the cell suspension to the automated cell hotel on the Patchliner where cells are stored at RT (∼20°C) in a small Teflon vessel and repetitively aspirated every 30 s using a 1 ml plastic pipette tip to prevent aggregation. The cell hotel parameters can be adjusted (interval, speed and volume of aspiration) depending on the cell type to maintain viability for 2–3 h. Cell sealing was conducted in the presence of elevated divalent cations and lowered Na^+, which were washed off after whole-cell access was achieved and replaced with external solution while cells were voltage clamped at a holding potential of −60 mV. […]
Concentration-response xC50 curves from Patchliner and QPatch 48 experiments were calculated by plotting %inhibition (antagonists) or activation (pH) data against concentration in Prism software (GraphPad), using the variable sigmoidal dose-response function to fit the Hill equation with theoretical minimum block of 0% and maximum block of 100% and a free constant for Hill slope. […]

Structure (SMILES)	IC50 ([1]; HEK cells)	IC50 ([1]; Homo sapiens, HEK293, pH 6.5, HEK cells) [nM]	inhibition at 0.3 µM ([1]; Homo sapiens, HEK293, read-out: inhibition of pH-evoked current (some cells)) [%]	sensitivity of ENaC channels to inhibition (ENaC channels) [nM]	IC50 [2] [nM]	IC50 (hASIC1a [3]) [nM]	IC50 (hASIC1a [4]) [nM]
N=C(N)NC(=O)c1nc(Cl)c(N)nc1N [Amiloride]	2000 to 3000 nM and 2800 nM	2820	~25	100	2200	–	–
NC(=NCc1ccccc1)NC(=O)c1nc(Cl)c(N)nc1N [Benzamil]	–	–	–	–	–	3500	3650
